# Read-outs that look alike come from different tables or passages of the source.
# Molecular target: T1, MEK1^CA (human GST-MEK1, constitutively active, Ser218Asp and Ser222Asp) (Homo sapiens, UniProt Q02750, S218D/S222D)
# T1 construct: GST; made in house; host or cells: Escherichia coli
# Assay: MEK1 enzymatic activity assay (MEK1^CA / ERK2 / MBP, [γ-33P]ATP incorporation)
# Format: biochemical
# How it was run: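 Cascade assay: 25 µl reactions with 0.002 nmol E. coli-expressed GST-MEK1 S218D/S222D, 0.02 nmol His-tagged mouse ERK2, 0.25 nmol MBP, 0.25 nmol unlabeled ATP and 0.1 µCi [γ-33P]ATP. Compound preincubated 30 min at ambient temperature with MEK1/ERK2; stopped with TCA, 33P-labelled protein filter-captured and scintillation-counted.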
# [1] = Table 1, compounds of formula I, read-out: Avg IC50
# [2] = Table 4, R' is (CH2)1 or 2-G, read-out: IC50
# [3] = Table 2, Ar1-A contains an amido or indolo group, read-out: IC 50
# T1 sequence (Q02750 whole entry S218D/S222D): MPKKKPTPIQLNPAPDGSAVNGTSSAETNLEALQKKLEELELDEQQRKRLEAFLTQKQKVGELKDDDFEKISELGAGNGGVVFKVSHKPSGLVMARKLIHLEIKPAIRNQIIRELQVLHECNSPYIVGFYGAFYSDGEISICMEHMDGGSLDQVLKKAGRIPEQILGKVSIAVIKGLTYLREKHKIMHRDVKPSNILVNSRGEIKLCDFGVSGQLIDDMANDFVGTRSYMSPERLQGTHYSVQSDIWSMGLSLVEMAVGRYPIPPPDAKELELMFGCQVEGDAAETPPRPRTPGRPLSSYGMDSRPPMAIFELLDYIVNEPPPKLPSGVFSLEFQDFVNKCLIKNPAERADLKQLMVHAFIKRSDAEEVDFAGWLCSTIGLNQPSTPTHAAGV
Compound,IC50 [1] [nM],other results
Cc1ccc(Nc2snc(O)c2C(=N)NN2CCCCC2)cc1 [Cpd 7],100 to 500,
CN(C)CCNC(=N)c1c(O)nsc1Nc1ccc(Oc2cc(Cl)ccc2Cl)cc1 [compound 443],1 to 100,
Cc1ccc(Cl)c(Oc2ccc(Nc3snc(O)c3C(=N)NC(C)CO)cc2)c1 (stereo not shown) [compound 288],1 to 100,
CC(CO)NC(=N)c1c(O)nsc1Nc1ccc(-n2cccn2)cc1 (stereo not shown) [compound 315],> 500,
CCCCc1ccc(Nc2snc(O)c2C(=N)NCC2CCCCC2)cc1 [compound 94],100 to 500,
CCOC(=O)c1cccc(Oc2ccc(Nc3snc(O)c3C(=N)NC(C)C)cc2)c1 [compound 410],1 to 100,
CC(C)(C)CCNC(=N)c1c(O)nsc1Nc1ccc(Oc2ccccc2)cc1 [compound 41],100 to 500,
CC(C)CCNC(=N)c1nsc(Nc2ccc(Oc3ccccc3)cc2)c1O [compound 43],1 to 100,
N=C(c1c(O)nsc1Nc1ccc(Oc2cc(F)cc(F)c2)cc1)N1CCCCC1 [compound 417],> 500,
CC(CO)NC(=N)c1c(O)nsc1Nc1ccc(Oc2ccc(Br)cc2)c(F)c1 (stereo not shown) [compound 333],1 to 100,
N=C(NCC(O)CO)c1c(O)nsc1Nc1cccc(Br)c1 (stereo not shown) [compound 73],100 to 500,
CC(C)NC(=N)c1c(O)nsc1Nc1ccc(Oc2cc(Cl)ccc2Cl)nc1 [compound 431],1 to 100,
N=C(N)c1c(O)nsc1Nc1ccc(Oc2ccccc2)cc1 [compound 110],100 to 500,
CC(C)NC(=N)c1c(O)nsc1Nc1ccc(Oc2ccc(F)cc2F)c(F)c1 [compound 398],100 to 500,
N=C(NCc1ccccc1)c1c(O)nsc1Nc1ccc(C(=O)c2ccccc2)cc1,,IC50 [2]: 100 to 500 nM
CC(C)NC(=N)c1c(O)nsc1Nc1ccc(C(=O)Nc2ccccc2)cc1 [E-7],,IC50 [3]: > 1000 nM
N=C(c1c(O)nsc1Nc1ccc(Oc2cc(F)cc(F)c2)cc1)N1CCOCC1 [compound 420],> 500,
N=C(NCC1CCCCC1)c1c(O)nsc1NC12CC3CC(CC(C3)C1)C2 [compound 92],> 500,
COCCNC(=N)c1c(O)nsc1Nc1ccc(Oc2cccc(F)c2F)cc1C [compound 505],1 to 100,
N=C(NCCO)c1c(O)nsc1Nc1ccc(I)cc1 [compound 217],> 500,
CC(C)NC(=N)c1c(O)nsc1Nc1ccc(Oc2ccc(F)cc2)c(Cl)c1 [compound 387],100 to 500,
CC(CO)NC(=N)c1c(O)nsc1Nc1ccc(Oc2ccc(F)cc2)c(Br)c1 (stereo not shown) [compound 209],100 to 500,

Compound,IC50 [1] [nM],other results
N=C(NCC1CCCCC1)c1c(O)nsc1Nc1ccc(N2CCOCC2)nc1 [compound 132],> 500,
Cc1cccc(Cl)c1Oc1ccc(Nc2snc(O)c2C(=N)NC(C)CO)cc1 (stereo not shown) [compound 343],> 500,
CC(C)NC(=N)c1c(O)nsc1Nc1ccc(Oc2ccccc2)c(F)c1 [compound 307],1 to 100,
CC(C)CNC(=N)c1c(O)nsc1Nc1ccc(Oc2ccccc2)cc1 [compound 202],1 to 100,
CC(C)NC(=N)c1c(O)nsc1Nc1ccc(Oc2ccc(F)cc2F)cc1 [compound 357],1 to 100,
CCOC(=O)c1ccccc1Oc1ccc(Nc2snc(O)c2C(=N)NC(C)CO)cc1 (stereo not shown) [compound 494],1 to 100,
CC(C)NC(=N)c1c(O)nsc1Nc1ccc(Oc2cccc(F)c2)cc1 [compound 272],1 to 100,
Cc1ccc(Nc2snc(O)c2C(=N)NC2CCCC2)cc1 [Cpd 2],100 to 500,
CC(C)NC(=N)c1c(O)nsc1Nc1ccc(Oc2ccc(Cl)cc2Cl)cc1 [compound 232],1 to 100,
N=C(N[C@@H]1CCCC[C@H]1O)c1c(O)nsc1Nc1ccc(Oc2ccccc2)cc1 [compound 167],100 to 500,
CC(C)NC(=N)c1c(O)nsc1Nc1ccc(O)c(Cl)c1 [compound 243],100 to 500,
Cc1cc(Oc2cccc(C(F)(F)F)c2)ccc1Nc1snc(O)c1C(=N)NCC(O)CO (stereo not shown) [compound 472],1 to 100,
Cc1cc(Oc2cc(F)cc(F)c2)ccc1Nc1snc(O)c1C(=N)NC(C)C [compound 457],1 to 100,
CC[C@H](CO)NC(=N)c1c(O)nsc1Nc1ccc(Oc2cccc(C(F)(F)F)c2)cc1C [compound 474],1 to 100,
CC(C)NC(=N)c1c(O)nsc1Nc1ccc(Oc2cc(F)cc(F)c2)cc1 [compound 287],1 to 100,
COc1ccc(Nc2snc(O)c2C(=N)NCc2ccc(C(F)(F)F)nc2)c(OC)n1 [compound 184],> 500,
N=C(NCC1CCCCC1)c1c(O)nsc1Nc1ccc(Oc2ccccc2)cc1 [compound 37],1 to 100,
CCCCNC(=N)c1c(O)nsc1Nc1ccc(Oc2ccccc2)cc1 [Cpd 27],100 to 500,
CC(CO)NC(=N)c1c(O)nsc1Nc1ccc(C(=O)N2CCN(C)CC2)cc1 (stereo not shown) [E-17],,IC50 [3]: > 1000 nM
N=C(NCC1CCCCC1)c1c(O)nsc1Nc1cccc([N+](=O)[O-])c1 [compound 82],100 to 500,
CC(CO)NC(=N)c1c(O)nsc1Nc1ccc(Oc2ccccc2Cl)cc1 (stereo not shown) [compound 211],> 500,
CC(C)NC(=N)c1c(O)nsc1Nc1ccc(OC2CCNCC2)cc1 [compound 253],> 500,

Compound,IC50 [1] [nM],other results
CC1(C)C2CCC1[C@H](CNC(=N)c1c(O)nsc1Nc1ccc(Oc3ccccc3)cc1)CC2 (stereo partly shown) [compound 46],1 to 100,
CC[C@@H](CO)NC(=N)c1c(O)nsc1Nc1ccc(Oc2ccccc2)cc1 [compound 176],100 to 500,
N=C(NCC1CCCCC1)c1c(O)nsc1NC1CCc2ccccc21 (stereo not shown) [compound 116],> 500,
N=C(NCc1ccccn1)c1c(O)nsc1Nc1ccc(Oc2cc(Cl)ccc2Cl)cc1 [compound 448],1 to 100,
CC(C)C(CO)NC(=N)c1c(O)nsc1Nc1ccc(Oc2ccccc2)cc1 (stereo not shown) [compound 179],100 to 500,
C[C@@H](CO)NC(=N)c1c(O)nsc1Nc1ccc(Oc2ccccc2)cc1 [compound 174],1 to 100,
N=C(c1c(O)nsc1Nc1ccc(Oc2ccc(Cl)cc2Cl)cc1)N1CCCCC1 [compound 427],> 500,
Cc1cc(Oc2cccc(F)c2F)ccc1Nc1snc(O)c1C(=N)NC(CO)C(C)C (stereo not shown) [compound 503],100 to 500,
CC(C)NC(=N)c1c(O)nsc1Nc1ccc(Oc2cccc(C(F)(F)F)c2Cl)c(Cl)c1 [compound 364],1 to 100,
COc1ccc(Nc2snc(O)c2C(=N)NCC2CCCCC2)cc1 [compound 60],> 500,
N=C(NCC1CCCCC1)c1c(O)nsc1Nc1ccc(Oc2cncnc2)cc1 [drawing 827],,IC50 [2]: > 500 nM
N=C(NCCCN1CCCC1=O)c1c(O)nsc1Nc1ccc(Oc2ccccc2)cc1 [compound 39],1 to 100,
CC(C)NC(=N)c1c(O)nsc1Nc1ccc(Oc2cc(F)cc(F)c2Cl)cc1 [compound 329],1 to 100,
COc1cccc(F)c1Oc1ccc(Nc2snc(O)c2C(=N)NC(C)CO)cc1 (stereo not shown) [compound 281],100 to 500,
CC(C)NC(=N)c1c(O)nsc1Nc1ccc(Cl)nc1 [compound 264],> 500,
N=C(NCC1CCCCC1)c1c(O)nsc1Nc1ccc(C(=O)Nc2ccccc2)cc1 [drawing 811],,"IC50 (Table 3, benzamides of formula X, read-out: IC 50): > 500 nM"
CC(CO)NC(=N)c1c(O)nsc1Nc1ccc(Oc2cccc(F)c2F)nc1 (stereo not shown) [compound 432],100 to 500,
N=C(NCC(O)CO)c1c(O)nsc1Nc1ccc(C(=O)N2CCc3ccccc32)cc1 (stereo not shown) [E-12],,IC50 [3]: 200 to 1000 nM
CC(C)c1ccc(Nc2snc(O)c2C(N)=NCC(O)CO)cc1 (stereo not shown) [compound 70],100 to 500,
COC(=O)c1cccc(Nc2snc(O)c2C(=N)NC(C)CO)c1C (stereo not shown) [compound 490],100 to 500,
N=C(NCCO)c1c(O)nsc1Nc1ccc(Cc2ccccc2)cc1 [compound 146],> 500,
N=C(c1c(O)nsc1Nc1ccc(Oc2ccccc2)cc1)N(O)Cc1ccccc1 [compound 138],100 to 500,

Compound,IC50 [1] [nM],other results
N=C(NCC1CCCCC1)c1c(O)nsc1Nc1ccc(Cl)nc1 [compound 126],> 500,
CC(C)NC(=N)c1c(O)nsc1Nc1ccc(/C=C/c2ccccc2)cc1 [compound 241],100 to 500,
N=C(NCc1ccc(C(F)(F)F)cc1)c1c(O)nsc1Nc1ccc(Oc2ccccc2)cc1 [Cpd 21],1 to 100,
CC(C)NC(=N)c1c(O)nsc1Nc1ccc(Oc2ccc(C(F)(F)F)cc2)c(Cl)c1 [compound 388],100 to 500,
CC(C)OCCCNC(=N)c1c(O)nsc1Nc1ccc(Oc2ccccc2)cc1 [compound 51],1 to 100,
CC(C)NC(=N)c1c(O)nsc1Nc1ccc(Oc2ccc(F)cc2Cl)cc1 [compound 296],100 to 500,
CC(CCc1ccccc1)NC(=N)c1c(O)nsc1Nc1ccc(Oc2ccccc2)cc1 (stereo not shown) [compound 50],1 to 100,
Cc1cc(Nc2snc(O)c2C(=N)NCC2CCCCC2)c2ccccc2n1 [compound 107],> 500,
CC(CO)NC(=N)c1c(O)nsc1Nc1ccc(Oc2ccc(F)cc2)cc1 (stereo not shown) [compound 206],> 500,
N=C(NCCCO)c1c(O)nsc1Nc1ccc(C(=O)N2CCc3ccccc32)cc1 [E-11],,IC50 [3]: 1 to 200 nM
CC(C)NC(=N)c1c(O)nsc1Nc1ccc(Oc2cc(C(F)(F)F)ccc2Cl)cc1F [compound 384],100 to 500,
CC(CO)NC(=N)c1c(O)nsc1Nc1cc(F)c(Oc2cc(Cl)ccc2Cl)cc1F (stereo not shown) [compound 476],1 to 100,
N=C(NCC1CCCCC1)c1c(O)nsc1NC1CCCCC1 [compound 90],> 500,
CC(C)NC(=N)c1c(O)nsc1Nc1ccc(S(=O)(=O)c2ccccc2)cc1 [compound 244],> 500,
N=C(NCC(O)CO)c1c(O)nsc1Nc1cc(F)c(Oc2cc(Cl)ccc2Cl)cc1F (stereo not shown) [compound 477],1 to 100,
N=C(NCc1cccc2ccccc12)c1c(O)nsc1Nc1cccc(Cl)c1Cl [compound 105],> 500,
N=C(NCC1CCCCC1)c1c(O)nsc1Nc1ccc([N+](=O)[O-])cc1O [compound 89],> 500,
N=C(NCCCCCCO)c1c(O)nsc1Nc1ccc(Oc2ccccc2)cc1 [compound 32],1 to 100,
CC(C)Nc1snc(O)c1C(=N)NCC1CCCCC1 [compound 117],> 500,

# — patent US7652047B2, “Phenylamino isothiazole carboxamidines as MEK inhibitors” (Ardea Biosciences, Inc., priority 2005, dated 2010)
